In patent US12077503B2, “Substituted cyclic amides and their use as herbicides” (FMC CORPORATION, priority 2015, dated 2024):

What was measured:
Format in all cases: in vivo
[1] = test system: rice (Oryra sativa); test: Test B flooded paddy test; conditions: Flood, 250 g ai/ha; 0 to 100 scale where 0 is no effect and 100 is complete control; 13 to 15 d
How it was run: (§1)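 Flooding to 3 cm over soil accompanied treatment, which consisted of adding compound to the standing water around 2-leaf plants; depth was then maintained. Visual assessment versus controls followed at 13 to 15 d (scale 0–100, 0 meaning no effect).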

[2] = test system: barnyardgrass (Echinochloa crus-galli); test: Test B flooded paddy test; conditions: Flood, 250 g ai/ha; 0 to 100 scale where 0 is no effect and 100 is complete control; 13 to 15 d
How it was run: as §1

[3] = test system: ducksalad (Heteranthera limosa); test: Test B flooded paddy test; conditions: Flood, 250 g ai/ha; 0 to 100 scale where 0 is no effect and 100 is complete control; 13 to 15 d
How it was run: as §1

[4] = test system: sedge, umbrella (small-flower umbrella sedge, Cyperus difformis); test: Test B flooded paddy test; conditions: Flood, 250 g ai/ha; 0 to 100 scale where 0 is no effect and 100 is complete control; 13 to 15 d
How it was run: as §1

[5] = test system: barnyardgrass (Echinochloa crus-galli); test: Test A postemergence
How it was run: (§2)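 Preemergence directed soil spray on seeded pots, or postemergence application to plants 2–10 cm, one- to two-leaf. Solvent mixture non-phytotoxic, with surfactant. Scored ~10 d later, visually, 0–100 vs untreated.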

[6] = test system: Kochia (Kochia scoparia); test: Test A postemergence; conditions: postemergence; for Kochia plant response rating: 125 g ai/ha, visual injury rating on 0 to 100 scale (0 no effect, 100 complete control), approx. 10 d; for Plant response rating, Kochia: 500 g ai/ha, 0 to 100 scale, 0 no effect, 100 complete control
How it was run: as §2

[7] = test system: pigweed (Amaranthus retroflexus); test: Test A postemergence; conditions: postemergence; for Pigweed plant response rating: 125 g ai/ha, visual injury rating on 0 to 100 scale (0 no effect, 100 complete control), approx. 10 d; for Plant response rating, Pigweed: 500 g ai/ha, 0 to 100 scale, 0 no effect, 100 complete control
How it was run: as §2

[8] = test system: ryegrass, Italian (Italian ryegrass, Lolium multiflorum); test: Test A postemergence; conditions: postemergence; for Ryegrass, Italian plant response rating: 125 g ai/ha, visual injury rating on 0 to 100 scale (0 no effect, 100 complete control), approx. 10 d; for Plant response rating, Ryegrass, Italian: 500 g ai/ha, 0 to 100 scale, 0 no effect, 100 complete control
How it was run: as §2

[9] = test system: ragweed (common ragweed, Ambrosia elatior); test: Test A postemergence; conditions: postemergence; for Ragweed plant response rating: 125 g ai/ha, visual injury rating on 0 to 100 scale (0 no effect, 100 complete control), approx. 10 d; for Plant response rating, Ragweed: 500 g ai/ha, 0 to 100 scale, 0 no effect, 100 complete control
How it was run: as §2

[10] = test system: giant foxtail (Setaria faberii); test: Test A postemergence; conditions: postemergence; for Foxtail, Giant plant response rating: 125 g ai/ha, visual injury rating on 0 to 100 scale (0 no effect, 100 complete control), approx. 10 d; for Plant response rating, Foxtail, Giant: 500 g ai/ha, 0 to 100 scale, 0 no effect, 100 complete control
How it was run: as §2

[11] = test system: wheat (Triticum aestivum); test: Test A postemergence; conditions: postemergence; for Wheat plant response rating: 125 g ai/ha, visual injury rating on 0 to 100 scale (0 no effect, 100 complete control), approx. 10 d; for Plant response rating, Wheat: 500 g ai/ha, 0 to 100 scale, 0 no effect, 100 complete control
How it was run: as §2

[12] = test system: blackgrass (Alopecurus myosuroides); test: Test A postemergence
How it was run: as §2

[13] = test system: Galium (catchweed bedstraw, Galium aparine); test: Test A postemergence; conditions: postemergence; for Galium plant response rating: 125 g ai/ha, visual injury rating on 0 to 100 scale (0 no effect, 100 complete control), approx. 10 d; for Plant response rating, Galium: 500 g ai/ha, 0 to 100 scale, 0 no effect, 100 complete control
How it was run: as §2

[14] = test system: corn (Zea mays); test: Test A postemergence; conditions: postemergence; for Corn plant response rating: 125 g ai/ha, visual injury rating on 0 to 100 scale (0 no effect, 100 complete control), approx. 10 d; for Plant response rating, Corn: 500 g ai/ha, 0 to 100 scale, 0 no effect, 100 complete control
How it was run: as §2

[15] = test system: barnyardgrass (Echinochloa crus-galli); test: Test A preemergence; conditions: for Plant response rating, Barnyardgrass: 125 g ai/ha, preemergence, 0 to 100 scale (0 no effect, 100 complete control)
How it was run: as §2

[16] = test system: Kochia (Kochia scoparia); test: Test A preemergence; conditions: for Plant response rating, Kochia: 125 g ai/ha, preemergence, 0 to 100 scale (0 no effect, 100 complete control)
How it was run: as §2

[17] = test system: pigweed (Amaranthus retroflexus); test: Test A preemergence; conditions: for Plant response rating, Pigweed: 125 g ai/ha, preemergence, 0 to 100 scale (0 no effect, 100 complete control)
[18] = test system: ryegrass, Italian (Italian ryegrass, Lolium multiflorum); test: Test A preemergence; conditions: for Plant response rating, Ryegrass, Italian: 125 g ai/ha, preemergence, 0 to 100 scale (0 no effect, 100 complete control)
How it was run: as §2

[19] = test system: ragweed (common ragweed, Ambrosia elatior); test: Test A preemergence; conditions: for Plant response rating, Ragweed: 125 g ai/ha, preemergence, 0 to 100 scale (0 no effect, 100 complete control)
How it was run: as §2

[20] = test system: giant foxtail (Setaria faberii); test: Test A preemergence; conditions: for Plant response rating, Foxtail, Giant: 125 g ai/ha, preemergence, 0 to 100 scale (0 no effect, 100 complete control)
How it was run: as §2

[21] = 500 g ai/ha, postemergence, 0 to 100 scale, 0 no effect, 100 complete control
[22] = Postemergence, 125 g ai/ha, visual injury, 0 to 100 scale (0 no effect, 100 complete control), approx. 10 d
[23] = Preemergence, 500 g ai/ha, 0 is no effect, 100 is complete control
[24] = 125 g ai/ha, postemergence, visual injury rating on 0 to 100 scale (0 no effect, 100 complete control), approx. 10 d
[25] = Preemergence, 500 g ai/ha, visual injury approx. 10 d

Compound | Plant response rating, Rice [1] | Plant response rating, Barnyardgrass [2] | Plant response rating, Ducksalad [3] | Plant response rating, Sedge, Umbrella [4] | Plant response rating, Barnyardgrass [5, 21] | Kochia plant response rating [6] | Plant response rating, Kochia [6] | Pigweed plant response rating [7] | Plant response rating, Pigweed [7] | Ryegrass, Italian plant response rating [8] | Plant response rating, Ryegrass, Italian [8] | Ragweed plant response rating [9] | Plant response rating, Ragweed [9] | Foxtail, Giant plant response rating [10] | Plant response rating, Foxtail, Giant [10] | Wheat plant response rating [11] | Plant response rating, Wheat [11] | Plant response rating, Blackgrass [12, 21] | Galium plant response rating [13] | Plant response rating, Galium [13] | also measured
CN1CC(c2ccc(C(F)(F)F)c(F)c2)C(C(=O)Nc2cccc(F)c2F)C1=O (stereo not drawn) [Compound 396] | 30 | 40 | 40 | 0 | 90 | 60 | 70 | 60 | 70 | 50 | 70 | 0 | 0 | 80 | 90 | 20 | 70 | 60 | 60 | 60 | Plant response rating, Barnyardgrass [5, 22]: 70; Plant response rating, Blackgrass [12, 22]: 50; Corn plant response rating [14]: 70; Plant response rating, Corn [14]: 80; Plant response rating, Barnyardgrass [15]: 90; Barnyardgrass plant response rating (0 to 100 scale) [15, 23]: 90; Plant response rating, Kochia [16]: 80; Kochia plant response rating (0 to 100 scale) [16, 23]: 80; Plant response rating, Pigweed [17]: 90; Pigweed plant response rating (0 to 100 scale) [17, 23]: 90; Plant response rating, Ryegrass, Italian [18]: 60; Ryegrass, Italian plant response rating (0 to 100 scale) [18, 23]: 70; Plant response rating, Ragweed [19]: 0; Ragweed plant response rating (0 to 100 scale) [19, 23]: 20; Plant response rating, Foxtail, Giant [20]: 90; Foxtail, Giant plant response rating (0 to 100 scale) [20, 23]: 90
CN1CC(c2ccc(C(F)(F)F)c(F)c2)C(C(=O)Nc2ccccc2F)C1=O (stereo not drawn) [Compound 399] | 0 | 65 | 100 | 0 | 90 | 50 | 60 | 30 | 40 | 40 | 40 | 0 | 0 | 90 | 90 | 40 | 60 | 60 | 50 | 50 | Barnyardgrass plant response rating [5, 24]: 90; Blackgrass plant response rating [12, 24]: 40; Corn plant response rating [14]: 50; Plant response rating, Corn [14]: 70; Plant response rating, Barnyardgrass [15]: 90; Barnyardgrass plant response rating (0 to 100 scale, 0 is no effect, 100 is complete control) [15, 25]: 90; Plant response rating, Kochia [16]: 80; Kochia plant response rating (0 to 100 scale, 0 is no effect, 100 is complete control) [16, 25]: 80; Plant response rating, Pigweed [17]: 70; Pigweed plant response rating (0 to 100 scale, 0 is no effect, 100 is complete control) [17, 25]: 90; Plant response rating, Ryegrass, Italian [18]: 20; Ryegrass, Italian plant response rating (0 to 100 scale, 0 is no effect, 100 is complete control) [18, 25]: 60; Plant response rating, Ragweed [19]: 50; Ragweed plant response rating (0 to 100 scale, 0 is no effect, 100 is complete control) [19, 25]: 50; Plant response rating, Foxtail, Giant [20]: 90; Foxtail, Giant plant response rating (0 to 100 scale, 0 is no effect, 100 is complete control) [20, 25]: 90
